# From patent US20230226099A1, “INHALABLE FORMULATION” (AALTO UNIVERSITY FOUNDATION SR, priority 2020, published 2023)
# Columns and labels:
# [1] = test system: MDR-Acinetobacter baumannii; assay: Antibiotic resistance profile of strain; type: cell-based; conditions: strain 5542
# Pseudomonas aeruginosa = assay: Antibiotic resistance profile of strains; type: cell-based
# [2] = test system: Pseudomonas aeruginosa PAO1; assay: Coadministration with antibiotics, development of resistance (MIC over days); type: cell-based
# Text: MIC values were categorized in three groups according to the Clinical and Laboratory Standards Institute: susceptible, intermediate susceptible and resistant.
# [3] = test system: lipopolysaccharides of P. aeruginosa, strain PA10; assay: Analytical ultracentrifuge sedimentation velocity analysis of interaction with LPS; type: binding, Pseudomonas aeruginosa; conditions: 135 μM P[5]a and 35 μM LPS, UV absorbance at 305 nm
# Protocol: A clear initial peak of unbound P[5]a can be observer at low molecular weight (2260 Da), followed by a long and polydisperse collection of peaks, ranging from low molecular weight (S), to very high molecular weight (60.000 kDa) See Example 2.
# The interaction of P[5]a with lipopolysaccharides of P. aeruginosa, strain PA10 was measured using AUC.
# Analytical ultracentrifugation (AUC) is based on sedimentation of colloidal particles in a centrifugal field. During centrifugation particles move toward the bot-tom of the measuring cell. This movement leads to redistribution of particles along the measuring cell, which in turn can be expressed as a change in concentration along the measuring cell. The absorbance detector was used to follow the changes caused by centrifugation (absorbance is proportional to concentration). In simple words, in AUC the inventors measure how concentration changes during centrifugation, so they collect concentration profiles. Interaction between particles can be measured as a result of changes in the sedimentation profiles. […]
# The spectra of both P[5]a and LPS from P. aeruginosa were first analysed separately (see FIGS. 11a and b). […] Because only the sedimentation of P[5]a was detected at 305 nm, the inventors were certain that any changes observed in the sedimentation profile, come from interactions between P[5]a and other particles. […]
# [4] = test system: MDR resistant clinical isolates; assay: Coadministration with antibiotics in MDR resistant clinical isolates; type: cell-based; conditions: Amikacin, Cefepime, Ceftazidime and Meropenem
# [5] = Lung neutrophil infiltration and inflammation score after i.v. or i.n. administration; type: in vivo; conditions: BALB/c mice, different dosages, 24 hours
# Text: Two different administration methods were use, intravenously (i.v.) or intranasally (i.n.). Pathological changes were graded according to severity (P=Present; 1=Minimal; 2=Mild; 3=Moderate).
compound,measurement,setting,value
CC1=C(C(=O)O)N2C(=O)[C@@H](NC(=O)[C@H](N)c3ccccc3)[C@H]2SC1 [Cefalexin],Antibiotic resistance (category),[1],"Resistant to Amikacin, Amoxicillin-clavulanate, Ampicillin,"
C[C@@H](O)[C@H]1C(=O)N2C(C(=O)O)=C(S[C@@H]3CN[C@H](C(=O)Nc4cccc(C(=O)O)c4)C3)[C@H](C)[C@H]12 [Ertapenem],Antibiotic resistance (category),[1],"Resistant to Amikacin, Amoxicillin-clavulanate, Ampicillin,"
C[C@@H](O)[C@H]1C(=O)N2C(C(=O)O)=C(S[C@@H]3CN[C@H](C(=O)N(C)C)C3)[C@H](C)[C@H]12 [Meropenem],Antibiotic resistance (category),[1],"Resistant to Amikacin, Amoxicillin-clavulanate, Ampicillin,"
same,Antibiotic resistance (value),Pseudomonas aeruginosa; strain 5539,8 µg
same,Antibiotic resistance (value),"Pseudomonas aeruginosa; strain 5542, MDR",8 µg
same,Antibiotic resistance (value),"Pseudomonas aeruginosa; strain 5827, MDR",16 µg
same,Antibiotic resistance (value),"Pseudomonas aeruginosa; strain 5832, MDR",8 µg
same,Antibiotic resistance (value),"Pseudomonas aeruginosa; strain 5834, MDR","cefepime 64 ug, ceftazidime 64 ug and meropenem 64 ug"
CC[C@H]1OC(=O)[C@H](C)[C@@H](O[C@H]2C[C@@](C)(OC)[C@@H](O)[C@H](C)O2)[C@H](C)[C@@H](O[C@@H]2O[C@H](C)C[C@H](N(C)C)[C@H]2O)[C@](C)(O)C[C@@H](C)CN(C)[C@H](C)[C@@H](O)[C@]1(C)O [Azithromycin],Antibiotic resistance (category),[1],"Resistant to Amikacin, Amoxicillin-clavulanate, Ampicillin,"
Piperacillin-tazobactam,Antibiotic resistance (category),[1],"Resistant to Amikacin, Amoxicillin-clavulanate, Ampicillin,"
same,Antibiotic resistance (category),Pseudomonas aeruginosa; strain 5539,resistant
NC[C@H]1O[C@H](O[C@H]2[C@H](O)[C@@H](O[C@H]3O[C@H](CO)[C@@H](O)[C@H](N)[C@H]3O)[C@H](N)C[C@@H]2N)[C@H](N)C[C@@H]1O [Tobramycin],Antibiotic resistance (category),[1],"Resistant to Amikacin, Amoxicillin-clavulanate, Ampicillin,"
same,Antibiotic resistance (category),Pseudomonas aeruginosa; strain 5539,resistant
Amoxicillin-clavulanate,Antibiotic resistance (category),[1],"Resistant to Amikacin, Amoxicillin-clavulanate, Ampicillin,"
CN(C)c1cc(NC(=O)CNC(C)(C)C)c(O)c2c1C[C@H]1C[C@H]3[C@H](N(C)C)C(O)=C(C(N)=O)C(=O)[C@@]3(O)C(O)=C1C2=O [Tigecycline],Antibiotic resistance (category),[1],"Resistant to Amikacin, Amoxicillin-clavulanate, Ampicillin,"
CO/N=C(\C(=O)N[C@@H]1C(=O)N2C(C(=O)O)=C(COC(N)=O)CS[C@H]12)c1ccco1 [cefurixome],Antibiotic resistance (category),Pseudomonas aeruginosa; strain 5539,resistant
Cc1cc(NS(=O)(=O)c2ccc(N)cc2)no1 [Sulfamethoxazole],Antibiotic resistance (category),[1],"Resistant to Amikacin, Amoxicillin-clavulanate, Ampicillin,"
CC(C)(O/N=C(\C(=O)N[C@@H]1C(=O)N2C(C(=O)[O-])=C(C[n+]3ccccc3)CS[C@H]12)c1csc(N)n1)C(=O)O [Ceftazidime],Antibiotic resistance (value),Pseudomonas aeruginosa; strain 5539,8 µg
same,Antibiotic resistance (value),"Pseudomonas aeruginosa; strain 5542, MDR",32 µg
same,Antibiotic resistance (value),"Pseudomonas aeruginosa; strain 5827, MDR",64 µg
same,Antibiotic resistance (value),"Pseudomonas aeruginosa; strain 5832, MDR",16 µg
same,Antibiotic resistance (value),"Pseudomonas aeruginosa; strain 5834, MDR","cefepime 64 ug, ceftazidime 64 ug and meropenem 64 ug"
CC1(C)S[C@@H]2[C@H](NC(=O)[C@H](N)c3ccccc3)C(=O)N2[C@H]1C(=O)O [Ampicillin],Antibiotic resistance (category),[1],"Resistant to Amikacin, Amoxicillin-clavulanate, Ampicillin,"
O=C(O)c1cn(C2CC2)c2cc(N3CCNCC3)c(F)cc2c1=O [ciprofloxacin],Antibiotic resistance (category),Pseudomonas aeruginosa; strain 5539,resistant
same,Antibiotic resistance (category),"Pseudomonas aeruginosa; strain 5832, MDR",resistant
C[C@H]1[C@H](NC(=O)/C(=N\OC(C)(C)C(=O)O)c2csc(N)n2)C(=O)N1S(=O)(=O)O [Aztreonam],Antibiotic resistance (category),Pseudomonas aeruginosa; strain 2798 (ATCC 2798),Intermediate susceptible
"C[N+](C)(C)CCOc1cc2c(OCC[N+](C)(C)C)cc1Cc1cc(OCC[N+](C)(C)C)c(cc1OCC[N+](C)(C)C)Cc1cc(OCC[N+](C)(C)C)c(cc1OCC[N+](C)(C)C)Cc1cc(OCC[N+](C)(C)C)c(cc1OCC[N+](C)(C)C)Cc1cc(OCC[N+](C)(C)C)c(cc1OCC[N+](C)(C)C)C2.[Br-].[Br-].[Br-].[Br-].[Br-].[Br-].[Br-].[Br-].[Br-].[Br-] [P[5]a, 4,9,14,19,24,26,28,30,32,34-Deca[2-(trimethylaminio)ethoxy]hexacyclo[21.2.2.2^3,6.2^8,11.2^13,16.2^18,21]pentatriaconta1(25),3,5,8,10, 13,15,18,20,23,26,28,30,32,34-pentadecaene 10bromide]",penetration of coadministered antibiotics,[2]; PAO1,enhances the penetration
same,development of resistance by the pathogen to the coadministered antibiotic,"[2]; coadministration with Aztreonam, Cefepime, Meropenem and Tobramycin, PAO1",greatly slowed
same,interaction with LPS,[3],strong interaction
same,penetration and efficacy of coadministered antibiotics,[4],enhances the penetration and efficacy
same,tolerability (lung neutrophil infiltration and inflammation score),[5],good tolerability
CO/N=C(\C(=O)N[C@@H]1C(=O)N2C(C(=O)[O-])=C(C[N+]3(C)CCCC3)CS[C@H]12)c1csc(N)n1 [Cefepime],MIC,"[2]; Pseudomonas aeruginosa, 96 h, PAO1, after four days, highest concentration of antibiotic included",128 µg/mL
Colistin,Antibiotic resistance (category),Pseudomonas aeruginosa; strain 2798 (ATCC 2798),Susceptible
NCC[C@H](O)C(=O)N[C@@H]1C[C@H](N)[C@@H](O[C@H]2O[C@H](CN)[C@@H](O)[C@H](O)[C@H]2O)[C@H](O)[C@H]1O[C@H]1O[C@H](CO)[C@@H](O)[C@H](N)[C@H]1O [Amikacin],Antibiotic resistance (category),[1],"Resistant to Amikacin, Amoxicillin-clavulanate, Ampicillin,"
same,Antibiotic resistance (category),Pseudomonas aeruginosa; strain 2798 (ATCC 2798),Susceptible
same,Antibiotic resistance (value),Pseudomonas aeruginosa; strain 5539,"Susceptible to Amikacin 8 ug, intermediate to Cefepime 8 ug,"
same,Antibiotic resistance (value),"Pseudomonas aeruginosa; strain 5542, MDR","MDR Intermediate susceptible to amikacin 16 ug, resistant to"
same,Antibiotic resistance (value),"Pseudomonas aeruginosa; strain 5550, MDR",MDR Intermediate susceptible to amikacin 32 ug
same,Antibiotic resistance (value),"Pseudomonas aeruginosa; strain 5834, MDR","MDR Intermediate susceptible to amikacin 16 ug, resistant to"
